The structures appear in SMILES notation.

The test has as its system multidrug-resistant (MDR) strains of Mycobacterium tuberculosis. As to the kind of experiment: microbe, parasite or virus in culture. The settings on record: 192 h, read-out: MIC MDR-TB. Type of test: cell-based.
Consider `N#Cc1ccc(C(=O)C[n+]2ccc(/C=N/O)cc2)cc1.[Br-]` [Compound 3d, (E)-1-(2-(4-Cyanophenyl)-2-oxoethyl)-4-((hydroxyimino)methyl)pyridin-1-ium bromide], for which the MIC was determined as 128 µg/mL.
Take `O=C(C[n+]1ccc(/C=N/O)cc1)c1ccc(F)cc1.[Br-]` [Compound 3c, (E)-1-(2-(4-Fluorophenyl)-2-oxoethyl)-4-((hydroxyimino)methyl)pyridin-1-ium bromide]: the MIC is 128 µg/mL.
In the case of `O=C(C[n+]1ccc(/C=N/O)cc1)c1ccc(Br)cc1.[Br-]` [Compound 3b, (E)-1-(2-(4-Bromophenyl)-2-oxoethyl)-4-((hydroxyimino)methyl)pyridin-1-ium bromide], the MIC is 64 µg/mL.
`O=C(C[n+]1ccc(/C=N/O)cc1)c1ccccc1.[Br-]` [Compound 3a, (E)-4-((Hydroxyimino)methyl)-1-(2-oxo-2-phenylethyl)pyridin-1-ium bromide]: the MIC amounted to 64 µg/mL.
For `O=C(C[n+]1ccc(/C=N/O)cc1)c1ccccc1[N+](=O)[O-].[Br-]` [Compound 3e, (E)-4-((Hydroxyimino)methyl)-1-(2-(2-nitrophenyl)-2-oxoethyl)pyridin-1-ium bromide], the MIC turned out to be 64 µg/mL.

For the origin of these results see patent US12215082B1 (priority 2023, dated 2025).
